What was measured:
Assay in all cases: biochemical
Parameters in all cases: Invitrogen kinase panel: Z'Lyte activity (ATP at Km) or LanthaScreen competitive ATP-site binding, percent inhibition
ALK2 = target: T1, ALK2 (Homo sapiens, UniProt Q04771)
T1 construct: gene ACVR1

CK1_delta = target: T2, CK1_delta (Homo sapiens, UniProt P48730)
T2 construct: gene CSNK1D

CK1_gamma2 = target: T3, CK1_gamma2 (Homo sapiens, UniProt P78368)
T3 construct: gene CSNK1G2

CLK1 = CLK1 (Homo sapiens, UniProt P49759)
CLK2 = CLK2 (Homo sapiens, UniProt P49760)
CSK = CSK (Homo sapiens, UniProt P41240)
EGFR(T790M,L858R) = EGFR(T790M,L858R) (Homo sapiens, UniProt P00533, L858R/T790M)
GRK6 = GRK6 (Homo sapiens, UniProt P43250)
JAK3 = JAK3 (Homo sapiens, UniProt P52333)
MARK1 = MARK1 (Homo sapiens, UniProt Q9P0L2)
MKNK2 = MKNK2 (Homo sapiens, UniProt Q9HBH9)
MST2 = target: T4, MST2 (Homo sapiens, UniProt Q13188)
T4 construct: gene STK3

PI3K-A = target: T5, PI3K-A (Homo sapiens, UniProt P42336)
T5 construct: gene PIK3CA

PKC_delta = target: T6, PKC_delta (Homo sapiens, UniProt Q05655)
T6 construct: gene PRKCD

Rsk1 = target: T7, Rsk1 (Homo sapiens, UniProt Q15418)
T7 construct: gene RPS6KA1

SGK1 = SGK1 (Homo sapiens, UniProt O00141)
TGFBR1 = TGFBR1 (Homo sapiens, UniProt P36897)
TNK2 = TNK2 (Homo sapiens, UniProt Q07912)
TSSK1 = target: T8, TSSK1 (Homo sapiens, UniProt Q9BXA7)
T8 construct: gene TSSK1B

TTK = TTK (Homo sapiens, UniProt P33981)
ZIPK = target: T9, ZIPK (Homo sapiens, UniProt O43293)
T9 construct: gene DAPK3

p38_alpha(direct) = target: T10, p38_alpha(direct) (Homo sapiens, UniProt Q16539)
T10 construct: gene MAPK14; direct

p38_beta = target: T11, p38_beta (Homo sapiens, UniProt Q15759)
T11 construct: gene MAPK11

p38_gamma = target: T12, p38_gamma (Homo sapiens, UniProt P53778)
T12 construct: gene MAPK12
T12 sequence (P53778 whole entry): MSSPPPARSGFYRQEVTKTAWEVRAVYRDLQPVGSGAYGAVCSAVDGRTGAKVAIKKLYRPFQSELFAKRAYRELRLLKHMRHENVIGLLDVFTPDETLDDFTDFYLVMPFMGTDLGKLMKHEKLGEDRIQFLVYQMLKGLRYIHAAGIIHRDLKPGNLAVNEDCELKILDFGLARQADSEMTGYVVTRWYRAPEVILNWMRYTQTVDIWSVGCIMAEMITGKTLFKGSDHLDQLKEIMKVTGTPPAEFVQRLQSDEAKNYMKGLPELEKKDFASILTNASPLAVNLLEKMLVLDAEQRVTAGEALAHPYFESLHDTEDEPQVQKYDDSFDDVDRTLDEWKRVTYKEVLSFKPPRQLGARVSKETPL

Sequence of TTK (P33981 whole entry): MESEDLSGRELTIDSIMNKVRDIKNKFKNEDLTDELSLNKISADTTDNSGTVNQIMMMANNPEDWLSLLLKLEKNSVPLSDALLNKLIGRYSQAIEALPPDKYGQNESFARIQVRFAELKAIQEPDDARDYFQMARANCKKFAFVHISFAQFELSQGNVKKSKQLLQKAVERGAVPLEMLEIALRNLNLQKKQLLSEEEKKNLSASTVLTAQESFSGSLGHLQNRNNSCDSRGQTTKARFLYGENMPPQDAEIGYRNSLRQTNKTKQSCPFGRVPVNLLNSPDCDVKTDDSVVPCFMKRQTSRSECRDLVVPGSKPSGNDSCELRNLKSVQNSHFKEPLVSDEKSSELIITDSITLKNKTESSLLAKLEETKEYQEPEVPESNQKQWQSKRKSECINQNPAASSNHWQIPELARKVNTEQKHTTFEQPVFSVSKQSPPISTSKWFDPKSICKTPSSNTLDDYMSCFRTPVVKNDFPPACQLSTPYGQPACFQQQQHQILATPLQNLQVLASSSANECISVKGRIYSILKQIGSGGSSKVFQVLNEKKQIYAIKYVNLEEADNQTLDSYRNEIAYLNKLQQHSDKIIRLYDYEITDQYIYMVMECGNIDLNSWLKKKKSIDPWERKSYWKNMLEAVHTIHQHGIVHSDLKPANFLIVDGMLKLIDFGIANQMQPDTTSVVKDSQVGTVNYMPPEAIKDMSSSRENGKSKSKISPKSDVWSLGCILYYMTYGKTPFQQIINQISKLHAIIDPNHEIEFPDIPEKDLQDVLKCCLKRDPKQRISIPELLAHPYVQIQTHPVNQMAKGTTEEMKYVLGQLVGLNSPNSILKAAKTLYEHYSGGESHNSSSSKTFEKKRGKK
Sequence of MARK1 (Q9P0L2 whole entry): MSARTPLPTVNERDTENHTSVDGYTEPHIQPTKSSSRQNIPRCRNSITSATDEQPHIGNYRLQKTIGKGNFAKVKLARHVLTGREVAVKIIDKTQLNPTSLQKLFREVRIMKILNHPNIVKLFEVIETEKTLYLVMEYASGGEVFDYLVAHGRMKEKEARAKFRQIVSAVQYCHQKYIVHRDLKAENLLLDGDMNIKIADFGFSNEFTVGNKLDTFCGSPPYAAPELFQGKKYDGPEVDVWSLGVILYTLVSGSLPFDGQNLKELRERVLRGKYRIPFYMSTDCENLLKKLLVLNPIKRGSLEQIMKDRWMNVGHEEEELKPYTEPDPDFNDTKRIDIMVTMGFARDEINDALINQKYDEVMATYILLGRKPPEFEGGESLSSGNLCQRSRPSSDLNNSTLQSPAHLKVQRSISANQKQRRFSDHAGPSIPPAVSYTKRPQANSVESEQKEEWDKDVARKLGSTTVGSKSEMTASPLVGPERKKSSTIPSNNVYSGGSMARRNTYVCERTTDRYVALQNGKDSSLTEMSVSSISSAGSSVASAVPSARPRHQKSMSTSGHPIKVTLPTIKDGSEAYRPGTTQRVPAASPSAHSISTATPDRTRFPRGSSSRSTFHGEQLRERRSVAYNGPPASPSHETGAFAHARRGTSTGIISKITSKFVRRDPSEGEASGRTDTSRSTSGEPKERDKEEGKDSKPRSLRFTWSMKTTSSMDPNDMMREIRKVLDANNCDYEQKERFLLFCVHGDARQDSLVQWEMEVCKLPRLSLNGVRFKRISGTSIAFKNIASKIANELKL
Sequence of TNK2 (Q07912 whole entry): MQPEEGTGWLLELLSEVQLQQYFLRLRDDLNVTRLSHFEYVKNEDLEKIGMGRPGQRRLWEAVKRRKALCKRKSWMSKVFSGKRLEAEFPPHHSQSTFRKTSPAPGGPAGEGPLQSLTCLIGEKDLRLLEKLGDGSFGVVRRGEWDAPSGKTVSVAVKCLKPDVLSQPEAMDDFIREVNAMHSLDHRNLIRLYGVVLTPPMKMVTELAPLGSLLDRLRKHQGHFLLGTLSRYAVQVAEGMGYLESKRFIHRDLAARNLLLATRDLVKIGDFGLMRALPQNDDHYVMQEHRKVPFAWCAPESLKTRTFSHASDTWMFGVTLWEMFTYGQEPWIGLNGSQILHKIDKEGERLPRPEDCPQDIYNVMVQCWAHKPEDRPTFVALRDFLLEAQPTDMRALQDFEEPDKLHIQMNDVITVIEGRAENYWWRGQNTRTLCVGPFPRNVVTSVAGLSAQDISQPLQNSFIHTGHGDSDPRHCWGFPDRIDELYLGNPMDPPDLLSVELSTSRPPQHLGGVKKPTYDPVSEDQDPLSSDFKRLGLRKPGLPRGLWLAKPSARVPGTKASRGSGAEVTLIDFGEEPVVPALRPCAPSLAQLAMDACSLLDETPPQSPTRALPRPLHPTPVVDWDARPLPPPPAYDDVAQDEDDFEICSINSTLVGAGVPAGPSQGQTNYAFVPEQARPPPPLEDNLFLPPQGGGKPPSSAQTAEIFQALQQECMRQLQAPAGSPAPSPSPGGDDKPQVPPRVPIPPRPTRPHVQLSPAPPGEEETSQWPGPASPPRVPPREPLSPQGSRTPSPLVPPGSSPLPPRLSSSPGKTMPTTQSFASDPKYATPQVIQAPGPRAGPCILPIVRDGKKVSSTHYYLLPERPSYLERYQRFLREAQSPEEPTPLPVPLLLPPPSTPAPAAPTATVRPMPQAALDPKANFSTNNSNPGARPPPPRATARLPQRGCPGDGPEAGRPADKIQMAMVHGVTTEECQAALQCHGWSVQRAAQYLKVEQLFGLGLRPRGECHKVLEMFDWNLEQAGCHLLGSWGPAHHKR
Sequence of EGFR(T790M,L858R) (P00533 whole entry T790M/L858R): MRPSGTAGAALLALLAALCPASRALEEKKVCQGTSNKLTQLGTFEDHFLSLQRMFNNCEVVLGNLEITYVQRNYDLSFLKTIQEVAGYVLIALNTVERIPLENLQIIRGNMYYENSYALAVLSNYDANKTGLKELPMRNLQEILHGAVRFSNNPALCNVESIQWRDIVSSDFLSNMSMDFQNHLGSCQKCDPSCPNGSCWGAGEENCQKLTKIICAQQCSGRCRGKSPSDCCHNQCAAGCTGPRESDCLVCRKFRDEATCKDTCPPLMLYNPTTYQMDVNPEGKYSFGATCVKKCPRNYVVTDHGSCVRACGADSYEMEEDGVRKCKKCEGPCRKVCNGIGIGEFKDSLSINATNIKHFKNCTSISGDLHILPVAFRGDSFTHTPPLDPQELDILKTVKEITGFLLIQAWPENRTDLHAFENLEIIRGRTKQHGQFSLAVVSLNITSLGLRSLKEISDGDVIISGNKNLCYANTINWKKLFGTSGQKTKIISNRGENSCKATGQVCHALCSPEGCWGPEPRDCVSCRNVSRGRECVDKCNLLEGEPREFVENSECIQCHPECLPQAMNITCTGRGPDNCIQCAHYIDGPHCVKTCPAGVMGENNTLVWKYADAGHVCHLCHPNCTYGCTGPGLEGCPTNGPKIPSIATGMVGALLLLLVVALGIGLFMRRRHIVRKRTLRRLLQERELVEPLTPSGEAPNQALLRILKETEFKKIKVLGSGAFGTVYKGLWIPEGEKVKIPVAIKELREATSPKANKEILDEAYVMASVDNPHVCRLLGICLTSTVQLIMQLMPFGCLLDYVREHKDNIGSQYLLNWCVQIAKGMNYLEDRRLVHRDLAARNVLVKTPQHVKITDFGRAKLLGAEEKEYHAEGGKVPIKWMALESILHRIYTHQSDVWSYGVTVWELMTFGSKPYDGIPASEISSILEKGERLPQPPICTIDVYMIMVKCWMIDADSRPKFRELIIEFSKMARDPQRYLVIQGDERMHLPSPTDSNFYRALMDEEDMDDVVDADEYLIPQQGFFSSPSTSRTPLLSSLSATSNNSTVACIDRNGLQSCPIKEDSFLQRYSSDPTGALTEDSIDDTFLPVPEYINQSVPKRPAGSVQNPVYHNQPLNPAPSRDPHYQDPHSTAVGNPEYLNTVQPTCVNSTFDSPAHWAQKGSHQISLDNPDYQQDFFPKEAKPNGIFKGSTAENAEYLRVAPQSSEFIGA
T10 sequence (Q16539 whole entry): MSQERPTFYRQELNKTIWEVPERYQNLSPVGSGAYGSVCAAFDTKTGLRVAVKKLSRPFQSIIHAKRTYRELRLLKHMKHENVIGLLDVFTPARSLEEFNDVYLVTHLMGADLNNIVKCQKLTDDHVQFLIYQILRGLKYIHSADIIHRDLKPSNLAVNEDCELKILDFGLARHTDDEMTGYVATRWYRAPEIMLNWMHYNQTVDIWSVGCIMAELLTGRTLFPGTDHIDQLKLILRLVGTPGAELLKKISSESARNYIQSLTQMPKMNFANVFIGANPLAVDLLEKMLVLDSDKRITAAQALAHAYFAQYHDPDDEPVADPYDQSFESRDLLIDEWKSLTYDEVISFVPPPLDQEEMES
Sequence of CSK (P41240 whole entry): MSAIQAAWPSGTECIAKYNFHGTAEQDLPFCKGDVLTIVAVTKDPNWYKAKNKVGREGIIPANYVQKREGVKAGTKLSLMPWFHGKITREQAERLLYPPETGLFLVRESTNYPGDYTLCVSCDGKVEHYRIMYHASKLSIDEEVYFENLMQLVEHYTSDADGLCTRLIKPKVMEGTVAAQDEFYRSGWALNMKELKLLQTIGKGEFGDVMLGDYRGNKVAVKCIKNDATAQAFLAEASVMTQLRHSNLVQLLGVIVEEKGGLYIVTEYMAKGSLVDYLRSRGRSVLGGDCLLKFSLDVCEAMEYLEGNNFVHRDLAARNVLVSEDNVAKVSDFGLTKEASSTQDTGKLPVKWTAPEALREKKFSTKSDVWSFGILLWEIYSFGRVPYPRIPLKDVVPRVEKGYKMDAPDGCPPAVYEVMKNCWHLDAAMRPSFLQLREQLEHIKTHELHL

Compound | inhibition at 1 µM (ALK2) | inhibition at 1 µM (CK1_delta) | inhibition at 1 µM (CK1_gamma2) | inhibition at 1 µM (CLK1) | inhibition at 1 µM (CLK2) | inhibition at 1 µM (CSK) | inhibition at 1 µM (EGFR(T790M,L858R)) | inhibition at 1 µM (GRK6) | inhibition at 1 µM (JAK3) | inhibition at 1 µM (MARK1) | inhibition at 1 µM (MKNK2) | inhibition at 1 µM (MST2) | inhibition at 1 µM (PI3K-A) | inhibition at 1 µM (PKC_delta) | inhibition at 1 µM (Rsk1) | inhibition at 1 µM (SGK1) | inhibition at 1 µM (TGFBR1) | inhibition at 1 µM (TNK2) | inhibition at 1 µM (TSSK1) | inhibition at 1 µM (TTK) | other results
CCOC(=O)Nc1cccc2c(Oc3ncccc3-c3ccnc(N[C@H]4CCCNC4)n3)c(C)ccc12 [G-1749] | 1% | 3% | -4.5% | 6% | 18.5% | 6% | 2.5% | -1% | -15.5% | 10% | 3.5% | 5.5% | 10% | 12% | 3% | 5.5% | 5.5% | 1% | 8.5% | 16% | inhibition at 1 µM (ZIPK): 1%; inhibition at 1 µM (p38_alpha(direct)): 77.5%; inhibition at 1 µM (p38_beta): 100%; inhibition at 1 µM (p38_gamma): 18%
CC#CC(=O)Nc1cccc2c(Oc3ncccc3-c3ccnc(N[C@H]4CCCNC4)n3)c(C)ccc12 [G-7658] | 0.5% | 5.5% | -4.5% | 5.5% | 23% | 5.5% | 4% | 1.5% | -15% | 9% | -2% | 2.5% | -18.5% | 15% | 1.5% | 3.5% | 7.5% | 2% | 7.5% | 11.5% | inhibition at 1 µM (ZIPK): 0%; inhibition at 1 µM (p38_alpha(direct)): 36.5%; inhibition at 1 µM (p38_beta): 63.5%; inhibition at 1 µM (p38_gamma): 16.5%

Reference: article PMC7736581, “Activation of the IRE1 RNase through remodeling of the kinase front pocket by ATP-competitive ligands” (Nature Communications, 2020)
